The IC50 is the point on the concentration scale where inhibition reaches its midpoint.

Molecules are shown by their SMILES.

The target in assay [1] is T1, Hyaluronidase (HAase).
T1 construct: gene SPAM1; ovine testis or bacterial possible; human HYAL1 2PE4 was only the docking model
Nature of the assay: modified Morgan-Elson colorimetric assay (DMAB, […] nm). Format: biochemical. The conditions noted are these: hyaluronic acid sodium 0.5 mg mL^−1; HAase 500 U mL^−1; CaCl2 12.5 mM; 37 °C.

Assay [2] relates to T1, Hyaluronidase (HAase). Nature of the assay: intrinsic fluorescence quenching, excitation […] nm. Format: binding. As to conditions: 293 K; sodium phosphate buffer pH 7.4; HAase 2.0 × 10^−6 mol L^−1; n 1.0623; double-log.

As to `O=C1C[C@@H](c2ccc(O)cc2)Oc2cc(O)ccc21` [liquiritigenin], half-maximal inhibition at Hyaluronidase (HAase) [1] (IC50) was put at 680 ± 43 µM. In the assay on Hyaluronidase (HAase) [2], the “K a” value was determined as 39537 L/mol.

For the origin of these results see article PMC4899609, “Spectroscopic and Docking Studies on the Binding of Liquiritigenin with Hyaluronidase for Antiallergic Mechanism” (Scientifica, 2016).
